# Laboratory results: ChEMBL document CHEMBL1201862, “PubChem BioAssay data set” (2004)
# Activity calls are given as the source filed them.
# Assays:
# [1] = target: Dual specificity tyrosine-phosphorylation-regulated kinase 1A (Rattus norvegicus, UniProt Q63470); format: biochemical, Homo sapiens
# [2] = target: Large T antigen (Simian virus 40, UniProt P03070); format: functional, Betapolyomavirus macacae;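 also: Confirmatory-stage PubChem screen for compounds that inhibit SV40 T antigen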
# [3] = target: T1, Coagulation factor XII (Homo sapiens, UniProt P00748); format: functional;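 also: activated factor XIIa alpha cleaving a fluorogenic AMC peptide substrate; inhibitor potency from loss of enzyme activity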
# T1 sequence (P00748 whole entry): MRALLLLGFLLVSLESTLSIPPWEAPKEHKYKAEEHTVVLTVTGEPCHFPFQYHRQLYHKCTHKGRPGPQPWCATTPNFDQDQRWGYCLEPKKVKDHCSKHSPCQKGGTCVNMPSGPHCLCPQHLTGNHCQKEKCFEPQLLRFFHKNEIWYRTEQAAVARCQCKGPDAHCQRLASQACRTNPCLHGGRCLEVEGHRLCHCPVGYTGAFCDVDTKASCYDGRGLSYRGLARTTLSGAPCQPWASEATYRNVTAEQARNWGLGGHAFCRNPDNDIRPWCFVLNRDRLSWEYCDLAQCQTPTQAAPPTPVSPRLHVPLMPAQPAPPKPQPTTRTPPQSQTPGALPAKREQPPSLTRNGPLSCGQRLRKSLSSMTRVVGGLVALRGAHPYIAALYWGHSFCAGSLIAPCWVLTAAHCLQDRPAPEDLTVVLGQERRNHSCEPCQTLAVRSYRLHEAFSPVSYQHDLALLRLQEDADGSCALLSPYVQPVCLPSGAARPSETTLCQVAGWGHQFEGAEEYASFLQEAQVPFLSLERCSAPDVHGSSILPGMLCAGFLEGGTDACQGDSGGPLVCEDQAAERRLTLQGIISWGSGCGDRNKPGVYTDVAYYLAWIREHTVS
# [4] = target: T2, Short transient receptor potential channel 4 (Mus musculus, UniProt Q9QUQ5); experiment: block of DAMGO-driven TRPC4 calcium entry – cell-based, HEK293 TRPC4/mu-opioid, Fluo-4 calcium, dose response (AID 434942); format: functional;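 also: potency of inhibitors blocking the TRPC4 calcium response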
# T2 sequence (Q9QUQ5 whole entry): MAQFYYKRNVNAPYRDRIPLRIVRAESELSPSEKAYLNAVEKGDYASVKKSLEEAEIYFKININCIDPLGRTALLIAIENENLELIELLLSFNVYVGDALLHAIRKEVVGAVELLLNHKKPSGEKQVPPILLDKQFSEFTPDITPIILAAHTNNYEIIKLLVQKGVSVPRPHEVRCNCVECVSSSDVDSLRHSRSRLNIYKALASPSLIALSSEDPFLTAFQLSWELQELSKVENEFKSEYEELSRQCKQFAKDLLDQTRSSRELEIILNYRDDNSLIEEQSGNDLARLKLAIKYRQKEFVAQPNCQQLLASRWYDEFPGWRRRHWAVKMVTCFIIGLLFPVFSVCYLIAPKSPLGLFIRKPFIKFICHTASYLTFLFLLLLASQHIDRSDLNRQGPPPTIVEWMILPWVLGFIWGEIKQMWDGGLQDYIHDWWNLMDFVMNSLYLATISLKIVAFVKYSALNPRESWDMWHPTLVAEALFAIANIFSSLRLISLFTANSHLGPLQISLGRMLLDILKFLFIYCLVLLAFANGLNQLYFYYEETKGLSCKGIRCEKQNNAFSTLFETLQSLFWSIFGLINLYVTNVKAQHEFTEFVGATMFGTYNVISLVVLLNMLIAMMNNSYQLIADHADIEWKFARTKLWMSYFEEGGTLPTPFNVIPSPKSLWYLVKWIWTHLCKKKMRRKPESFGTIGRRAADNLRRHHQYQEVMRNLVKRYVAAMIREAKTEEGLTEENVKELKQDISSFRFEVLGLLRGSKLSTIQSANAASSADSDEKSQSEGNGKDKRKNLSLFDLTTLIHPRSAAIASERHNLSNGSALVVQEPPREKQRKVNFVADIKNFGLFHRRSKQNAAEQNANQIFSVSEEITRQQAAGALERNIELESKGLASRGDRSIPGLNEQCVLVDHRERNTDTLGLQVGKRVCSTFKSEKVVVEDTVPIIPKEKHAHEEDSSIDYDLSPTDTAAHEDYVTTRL
# [5] = target: Peroxisome proliferator-activated receptor gamma/Nuclear receptor coactivator 2 (Homo sapiens, UniProt P37231); experiment: TR-FRET dose response biochemical High Throughput Screening assay for agonists of the steroid receptor coactivator 2 (SRC-2) recruitment by the peroxisome proliferator-activated receptor gamma (PPAR gamma): non-selective agonists. [Related pubchem assays: 1297, 1032 ]; format: functional
# [6] = target: Peroxisome proliferator-activated receptor gamma/Nuclear receptor coactivator 1 (Homo sapiens, UniProt P37231); experiment: TR-FRET dose response biochemical High Throughput Screening assay for agonists of the steroid receptor coactivator 1 (SRC-1) recruitment by the peroxisome proliferator-activated receptor gamma (PPAR gamma): non-selective agonists. [Related pubchem assays (depositor defined):AID1300, AID1808, AID504735, AID631]; format: protein assay
# [7] = target: Peroxisome proliferator-activated receptor gamma/Nuclear receptor coactivator 3 (Homo sapiens, UniProt P37231); experiment: TR-FRET dose response biochemical High Throughput Screening assay for agonists of the steroid receptor coactivator 3 (SRC-3) recruitment by the peroxisome proliferator-activated receptor gamma (PPAR gamma): non-selective agonists. [Related pubchem assays: 1301 (Confirmation screen.), 1048 (Primary screen.)]; format: functional
# [8] = viability loss of HMLE_sh_eGFP cells – cell-based, luminescence, counter-screen for HMLE_sh_ECad selective toxicity project, dose response (AID 463074); format: functional, Homo sapiens;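 also: HMLE human mammary epithelial cells expressing control shRNA against eGFP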
# [9] = Luminescence Cell-Based Dose Retest to Confirm Inhibitors of Cancer Stem Cells. [Related pubchem assays (depositor defined):AID2717, AID2721]; format: functional; conditions: Homo sapiens
# [10] = tested on: BJ; experiment: BJ-TERT fibroblast viability loss – cell-based, RAS-independent, luminescence, dose response (AID 1933); format: functional; conditions: Homo sapiens
# [11] = tested on: BJ; experiment: growth inhibition of engineered Ras-driven BJ cells – cell-based, alamar blue fluorescence, cherrypicked samples, dose response (AID 2631); format: functional; conditions: Homo sapiens;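 also: confirmatory dose-response assay in RAS-dependent BJ fibroblasts engineered with TERT, LT and ST, with cytotoxicity read by fluorescence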
# [12] = tested on: BJ; experiment: cells; format: functional, cell-based; conditions: Homo sapiens
# [13] = DRD fibroblast viability loss – cell-based, non-viral oncogenic, luminescence, dose response (AID 1934); format: functional; conditions: Homo sapiens
# [14] = tested on: INS1; experiment: INS-1E survival protection against cytokine death – cell-based, luminescence, retest, dose response (AID 449756); format: functional; conditions: Rattus norvegicus;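 also: cell death triggered by IL-1 beta plus TNF-alpha plus IFN-gamma mixture; protective hits raise ATP signal compared with cytokine alone wells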
# [15] = tested on: BJ; experiment: BJ-TERT-LT-ST fibroblast viability loss – cell-based, RAS-independent, luminescence, dose response (AID 1935); format: functional; conditions: Homo sapiens;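 also: BJ fibroblasts immortalized with TERT plus LT and ST oncogenes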
# [16] = target: T3, Streptokinase A (Streptococcus pyogenes serotype M1, UniProt P10520); experiment: viability-normalized secreted streptokinase activity reduction – plasminogen activation absorbance, OD405, dose response (AID 1914); format: functional, Streptococcus pyogenes M1 GAS;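 also: secreted streptokinase activity via plasminogen activation per viability signal from cell pellet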
# T3 sequence (P10520 whole entry): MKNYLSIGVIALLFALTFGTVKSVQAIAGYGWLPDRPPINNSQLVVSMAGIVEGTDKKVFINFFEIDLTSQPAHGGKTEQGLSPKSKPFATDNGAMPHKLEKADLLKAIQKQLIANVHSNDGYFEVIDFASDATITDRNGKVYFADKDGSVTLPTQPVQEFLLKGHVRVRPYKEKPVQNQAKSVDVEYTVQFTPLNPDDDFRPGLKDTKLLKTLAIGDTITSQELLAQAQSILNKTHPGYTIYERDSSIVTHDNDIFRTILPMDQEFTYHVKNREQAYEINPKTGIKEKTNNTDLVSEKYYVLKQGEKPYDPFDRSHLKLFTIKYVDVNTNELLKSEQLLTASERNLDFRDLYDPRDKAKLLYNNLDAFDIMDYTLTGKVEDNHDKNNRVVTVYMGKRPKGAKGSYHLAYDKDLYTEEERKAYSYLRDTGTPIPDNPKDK
# [17] = tested on: Streptococcus; experiment: GAS UMAA2166 growth inhibition – luminescence, BacTiterGlo, counter-screen for streptokinase expression inhibitor project, dose response (AID 1915); format: functional, organism-based;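 also: potency for reduction of bacterial viability or growth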
# [18] = tested on: Streptococcus sp. 'group A'; experiment: Streptococcus pyogenes SK(-)GAS viability under kanamycin – luminescence, BacTiterGlo, confirmation, counter-screen for streptokinase expression inhibitor project, dose response (AID 1900); format: functional, organism-based
# [19] = tested on: HEK293; experiment: inhibition of NOD1-driven NF-kB reporter – cell-based, luminescence, uHTS, primary screen (AID 1578); format: functional; conditions: Homo sapiens
# [20] = tested on: HEK293; experiment: cells; format: functional, cell-based; conditions: Homo sapiens
# [21] = tested on: HEK293; experiment: NOD2 signaling inhibitors in MDP-stimulated cells, cell-based, uHTS, luminescence (AID 2001); format: functional; conditions: Homo sapiens
# [22] = tested on: HEK293; experiment: cells; format: functional, cell-based; conditions: Homo sapiens; remark: listed apart in the source
# [23] = target: T4, Lysosomal acid glucosylceramidase (Homo sapiens, UniProt P04062); experiment: Dose response cell-based high throughput screening assay to identify enhancers of beta-glucosidase activity. [Related pubchem assays: 784 ]; format: functional
# T4 sequence (P04062 whole entry): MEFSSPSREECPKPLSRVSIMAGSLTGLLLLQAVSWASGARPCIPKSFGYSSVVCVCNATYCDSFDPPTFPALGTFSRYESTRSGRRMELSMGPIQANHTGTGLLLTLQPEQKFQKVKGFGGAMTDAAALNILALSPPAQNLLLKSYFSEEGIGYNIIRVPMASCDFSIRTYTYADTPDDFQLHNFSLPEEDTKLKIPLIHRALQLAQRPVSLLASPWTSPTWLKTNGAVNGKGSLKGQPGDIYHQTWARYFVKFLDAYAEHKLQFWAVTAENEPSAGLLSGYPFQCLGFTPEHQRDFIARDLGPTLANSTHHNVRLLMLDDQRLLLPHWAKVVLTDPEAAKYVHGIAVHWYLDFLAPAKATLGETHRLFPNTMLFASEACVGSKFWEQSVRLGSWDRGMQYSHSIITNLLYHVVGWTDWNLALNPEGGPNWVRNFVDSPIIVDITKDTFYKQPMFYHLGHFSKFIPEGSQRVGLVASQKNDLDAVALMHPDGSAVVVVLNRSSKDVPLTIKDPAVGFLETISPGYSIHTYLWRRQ
# Chain of Peroxisome proliferator-activated receptor gamma/Nuclear receptor coactivator 2 (P37231 whole entry): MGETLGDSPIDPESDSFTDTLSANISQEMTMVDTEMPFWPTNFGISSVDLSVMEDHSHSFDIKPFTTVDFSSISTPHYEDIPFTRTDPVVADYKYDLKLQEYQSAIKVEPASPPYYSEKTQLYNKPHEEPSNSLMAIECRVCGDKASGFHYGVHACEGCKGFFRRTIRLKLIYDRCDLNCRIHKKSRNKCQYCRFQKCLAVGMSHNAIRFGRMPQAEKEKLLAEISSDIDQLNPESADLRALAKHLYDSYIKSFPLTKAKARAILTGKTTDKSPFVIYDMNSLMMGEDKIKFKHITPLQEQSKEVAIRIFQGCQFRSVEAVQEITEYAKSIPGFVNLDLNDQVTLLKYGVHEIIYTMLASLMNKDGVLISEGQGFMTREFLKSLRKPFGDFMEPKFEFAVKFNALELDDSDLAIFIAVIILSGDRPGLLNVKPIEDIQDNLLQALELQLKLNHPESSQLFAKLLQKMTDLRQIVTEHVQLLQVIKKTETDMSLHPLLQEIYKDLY
# Chain of Peroxisome proliferator-activated receptor gamma/Nuclear receptor coactivator 2 (Q15596 whole entry, further chain): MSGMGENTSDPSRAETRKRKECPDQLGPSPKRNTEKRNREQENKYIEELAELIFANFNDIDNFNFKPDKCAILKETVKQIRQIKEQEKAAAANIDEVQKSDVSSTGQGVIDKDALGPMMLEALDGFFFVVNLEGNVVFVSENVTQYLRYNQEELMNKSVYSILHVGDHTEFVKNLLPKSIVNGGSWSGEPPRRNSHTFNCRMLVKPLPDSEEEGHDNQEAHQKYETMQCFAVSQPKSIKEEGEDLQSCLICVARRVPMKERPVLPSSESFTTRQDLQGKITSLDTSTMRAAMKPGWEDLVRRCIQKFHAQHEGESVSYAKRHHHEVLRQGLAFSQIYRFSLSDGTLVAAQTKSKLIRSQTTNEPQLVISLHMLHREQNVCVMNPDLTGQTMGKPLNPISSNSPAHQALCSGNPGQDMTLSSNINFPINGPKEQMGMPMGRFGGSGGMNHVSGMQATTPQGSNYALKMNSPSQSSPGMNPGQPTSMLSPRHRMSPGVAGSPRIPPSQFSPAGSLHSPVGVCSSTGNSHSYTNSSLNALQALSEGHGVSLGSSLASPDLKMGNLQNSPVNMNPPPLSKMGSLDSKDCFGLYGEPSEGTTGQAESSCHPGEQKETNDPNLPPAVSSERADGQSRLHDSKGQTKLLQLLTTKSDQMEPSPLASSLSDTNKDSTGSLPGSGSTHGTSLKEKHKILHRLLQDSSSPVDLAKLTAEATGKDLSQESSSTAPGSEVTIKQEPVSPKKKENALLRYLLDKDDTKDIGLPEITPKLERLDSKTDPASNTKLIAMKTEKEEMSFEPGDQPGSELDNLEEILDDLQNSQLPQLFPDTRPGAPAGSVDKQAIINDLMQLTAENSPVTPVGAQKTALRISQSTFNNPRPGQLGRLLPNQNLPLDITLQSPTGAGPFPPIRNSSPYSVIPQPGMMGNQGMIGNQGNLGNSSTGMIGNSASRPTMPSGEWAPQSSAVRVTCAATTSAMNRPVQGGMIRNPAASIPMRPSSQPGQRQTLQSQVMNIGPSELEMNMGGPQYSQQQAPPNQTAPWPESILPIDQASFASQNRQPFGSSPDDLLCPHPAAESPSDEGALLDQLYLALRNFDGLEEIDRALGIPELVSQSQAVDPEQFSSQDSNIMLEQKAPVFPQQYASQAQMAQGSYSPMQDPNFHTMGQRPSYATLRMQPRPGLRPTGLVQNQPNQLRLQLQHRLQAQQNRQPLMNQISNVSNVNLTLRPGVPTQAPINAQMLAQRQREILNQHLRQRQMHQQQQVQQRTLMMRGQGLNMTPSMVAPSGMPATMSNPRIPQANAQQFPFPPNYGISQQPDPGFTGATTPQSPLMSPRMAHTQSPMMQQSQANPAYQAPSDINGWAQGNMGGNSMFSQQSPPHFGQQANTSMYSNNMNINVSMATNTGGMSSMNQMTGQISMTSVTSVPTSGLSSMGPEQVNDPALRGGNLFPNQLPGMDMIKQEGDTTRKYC
# Chain of Peroxisome proliferator-activated receptor gamma/Nuclear receptor coactivator 3 (P37231 whole entry): as the sequence (P37231 whole entry) above
# Chain of Peroxisome proliferator-activated receptor gamma/Nuclear receptor coactivator 3 (Q9Y6Q9 whole entry, further chain): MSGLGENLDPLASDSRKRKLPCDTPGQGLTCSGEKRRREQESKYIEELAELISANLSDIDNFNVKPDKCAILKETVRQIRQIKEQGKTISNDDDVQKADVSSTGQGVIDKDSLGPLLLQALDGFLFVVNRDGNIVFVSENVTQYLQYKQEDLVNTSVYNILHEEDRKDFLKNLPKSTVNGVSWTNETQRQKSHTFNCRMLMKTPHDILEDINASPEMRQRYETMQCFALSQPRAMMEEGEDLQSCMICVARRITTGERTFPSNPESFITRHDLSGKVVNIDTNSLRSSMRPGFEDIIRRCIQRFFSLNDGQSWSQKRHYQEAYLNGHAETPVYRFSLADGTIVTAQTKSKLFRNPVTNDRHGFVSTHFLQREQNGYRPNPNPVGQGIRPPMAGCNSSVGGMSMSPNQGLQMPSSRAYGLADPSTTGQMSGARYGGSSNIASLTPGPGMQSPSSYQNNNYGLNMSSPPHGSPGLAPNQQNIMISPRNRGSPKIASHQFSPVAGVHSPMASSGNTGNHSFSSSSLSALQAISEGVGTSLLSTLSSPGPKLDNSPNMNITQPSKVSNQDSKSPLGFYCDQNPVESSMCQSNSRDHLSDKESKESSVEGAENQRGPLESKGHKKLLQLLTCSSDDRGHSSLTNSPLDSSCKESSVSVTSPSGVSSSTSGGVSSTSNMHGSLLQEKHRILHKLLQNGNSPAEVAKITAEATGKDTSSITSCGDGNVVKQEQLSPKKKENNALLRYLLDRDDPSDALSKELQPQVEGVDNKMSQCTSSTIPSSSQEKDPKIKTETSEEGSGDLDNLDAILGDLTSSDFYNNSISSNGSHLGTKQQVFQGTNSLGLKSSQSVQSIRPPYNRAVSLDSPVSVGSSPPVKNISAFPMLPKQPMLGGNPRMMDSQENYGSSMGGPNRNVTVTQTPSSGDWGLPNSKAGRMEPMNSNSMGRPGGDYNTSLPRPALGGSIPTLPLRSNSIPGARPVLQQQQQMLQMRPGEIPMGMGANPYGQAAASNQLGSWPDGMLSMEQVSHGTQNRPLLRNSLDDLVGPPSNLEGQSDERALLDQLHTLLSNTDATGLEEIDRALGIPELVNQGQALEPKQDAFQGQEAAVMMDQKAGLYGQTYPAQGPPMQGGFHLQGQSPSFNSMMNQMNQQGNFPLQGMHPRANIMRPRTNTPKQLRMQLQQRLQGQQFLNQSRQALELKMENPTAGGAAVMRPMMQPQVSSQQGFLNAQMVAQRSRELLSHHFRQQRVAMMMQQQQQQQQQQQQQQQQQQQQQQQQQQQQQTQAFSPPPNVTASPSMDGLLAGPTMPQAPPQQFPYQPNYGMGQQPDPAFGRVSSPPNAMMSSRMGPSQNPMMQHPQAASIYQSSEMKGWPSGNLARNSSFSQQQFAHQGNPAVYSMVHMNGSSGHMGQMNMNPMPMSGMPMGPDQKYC
# Chain of Large T antigen (P03070 whole entry): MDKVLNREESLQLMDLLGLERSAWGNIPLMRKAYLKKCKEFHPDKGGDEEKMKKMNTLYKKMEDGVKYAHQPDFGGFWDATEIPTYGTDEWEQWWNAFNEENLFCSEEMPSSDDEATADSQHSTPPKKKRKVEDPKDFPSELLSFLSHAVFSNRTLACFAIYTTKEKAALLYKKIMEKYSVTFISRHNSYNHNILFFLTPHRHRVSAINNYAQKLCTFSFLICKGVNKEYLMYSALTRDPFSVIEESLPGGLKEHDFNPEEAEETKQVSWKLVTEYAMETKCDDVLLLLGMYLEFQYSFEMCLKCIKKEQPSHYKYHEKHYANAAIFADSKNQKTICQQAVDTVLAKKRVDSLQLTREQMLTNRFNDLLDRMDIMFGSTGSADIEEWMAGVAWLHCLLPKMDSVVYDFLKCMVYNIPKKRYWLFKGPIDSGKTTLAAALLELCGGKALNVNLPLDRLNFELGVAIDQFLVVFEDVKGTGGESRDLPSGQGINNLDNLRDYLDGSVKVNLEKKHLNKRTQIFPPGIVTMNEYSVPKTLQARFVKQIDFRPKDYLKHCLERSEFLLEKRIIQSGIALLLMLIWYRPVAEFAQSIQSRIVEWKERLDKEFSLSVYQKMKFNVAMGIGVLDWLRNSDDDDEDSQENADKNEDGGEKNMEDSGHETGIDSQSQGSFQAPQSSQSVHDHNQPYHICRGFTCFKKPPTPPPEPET
smiles,measurement,setting,value
Oc1ccc2c(c1)oc1cc(O)ccc12,AC50,[1],0.754 µM (active)
same,IC50,[2],3.5 µM (active)
COc1ccc(N(CC(=O)Nc2ccccc2SC)S(C)(=O)=O)cc1OC,IC50,[3],> 50 µM (inactive)
COc1ccc(-c2cc(C(=O)c3c(N)n(C)c(=O)n(C)c3=O)c3ccccc3n2)cc1OC,IC50,[3],> 50 µM (inactive)
Cc1cc(-c2csc3ncnc(N4CCN(C)CC4)c23)cc(C)c1C,EC50,[4],1.19 µM (active)
O=C(Nc1nc2c(s1)CN(Cc1ccccc1)CC2)c1cccc(S(=O)(=O)N2CCc3ccccc32)c1,EC50,[5],14.8 µM (not active)
same,EC50,[6],10.8 µM (inactive)
same,EC50,[7],28 µM (not active)
COCc1c(C(=O)OCc2nc(N)nc(Nc3ccccc3C)n2)oc2ccccc12,IC50,[3],> 50 µM (inactive)
O=C(NNc1nc(-c2ccc(Cl)cc2)cs1)c1ccco1,AC50,[8],87.8 µM (active)
same,AC50,[9],1.8 µM (active)
CC1=C(C(=O)Nc2ccccc2)C(c2ccco2)C(C#N)=C(SCc2ccccc2)N1 (stereo unspecified),AC50,[8],28.4 µM (active)
same,AC50,[9],17.5 µM (active)
O=C(NCCCn1ccnc1)c1ccc(N2CCCCCC2)c([N+](=O)[O-])c1,EC50,[10],> 150 µM (not active)
same,EC50,[11],3.55 µM (active)
same,EC50,[12],7.97 µM (active)
same,EC50,[13],25.6 µM (active)
same,AC50,[14],6.67 µM (active)
same,EC50,[15],11.4 µM (active)
CC(Sc1nnc(-c2ccc(Cl)cc2Cl)n1Cc1ccccc1)C(=O)Nc1nccs1 (stereo unspecified),EC50,[5],> 79.4 µM (not active)
same,EC50,[6],10.6 µM (inactive)
same,EC50,[7],17.6 µM (not active)
COc1ccccc1N1CCN(CC(C)N(C(=O)C2CCCCC2)c2ccccn2)CC1 (stereo unspecified),EC50,[4],0.335 µM (active)
COc1cc(CNC2CCCC2)c(Br)cc1OCc1ccccc1,EC50,[4],0.237 µM (active)
CCOC(=O)C1CCCN(CC(=O)Nc2c(C(=O)OC)[nH]c3ccc(Br)cc23)C1 (stereo unspecified),EC50,[5],> 26.5 µM (not active)
same,EC50,[6],> 79.4 µM (inactive)
same,EC50,[7],> 79.4 µM (not active)
O=C(O)c1ccc(CSc2nc(-c3ccc(Cl)cc3)cc(C(F)(F)F)n2)cc1,EC50,[4],5.96 µM (active)
same,EC50,[16],> 150 µM (not active)
same,EC50,[17],11.7 µM (active)
same,EC50,[18],4.41 µM (active)
same,AC50,[9],5.76 µM (active)
CN(c1ccccc1)S(=O)(=O)c1cc(C(=O)Nc2nc3ccccc3[nH]2)ccc1Cl,EC50,[19],8.46 µM (active)
same,IC50,[20],5.37 µM (active)
same,IC50,[21],6.72 µM (active)
same,IC50,[22],> 20 µM (inactive)
CCn1c(SCC(=O)N2CCN(c3ccccc3)CC2)nnc1-c1cc2cc(Cl)ccc2o1,IC50,[3],> 50 µM (inactive)
same,EC50,[23],> 50 µM (not active)
c1ccc(-c2nnsc2-c2nc3ccccc3[nH]2)cc1,EC50,[5],10.3 µM (not active)
same,EC50,[6],10.8 µM (inactive)
same,EC50,[7],83.6 µM (not active)
